#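 The concentration for 50% growth inhibition is given as GI50. Definition used: TGI = concentration required for complete inhibition of growth.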
# Key:
# Experiment in all cases: NCI anticancer screen, dose series, 384-well format
# [1] = system: SN12C renal
# [2] = system: SK-OV-3 ovarian
# [3] = system: ACHN renal
# [4] = system: NCI-H460 NSCLC
# [5] = system: HL-60(TB) leukemia
# [6] = system: NCI/ADR-RES ovarian
# [7] = system: T-47D breast
# [8] = system: OVCAR-4 ovarian
# [9] = system: SK-MEL-5 melanoma
# [10] = system: MOLT-4 leukemia
# [11] = system: SR leukemia
# [12] = system: MDA-MB-231 breast
# [13] = system: MALME-3M melanoma
# [14] = system: CAKI-1 renal
# [15] = system: NCI-H522 lung
# [16] = system: HCC-2998 colon
# [17] = system: M14 melanoma
# [18] = system: A549 NSCLC
# [19] = system: CCRF-CEM leukemia
# [20] = system: SF-295 CNS
# [21] = system: PC-3 prostate
# [22] = system: HOP-92 NSCLC
# [23] = system: SNB-19 CNS
# [24] = system: SK-MEL-2 melanoma
# [25] = system: SF-539 CNS
# [26] = system: RPMI-8226 leukemia
# [27] = system: EKVX NSCLC
# [28] = system: NCI-H322M lung
# [29] = system: LOX IMVI melanoma
# [30] = system: OVCAR-8 ovarian
# [31] = system: OVCAR-5 ovarian
# [32] = system: HCT-15 colon
# [33] = system: DU-145 prostate
# [34] = system: SK-MEL-28 melanoma
# [35] = system: MDA-MB-468 breast
# [36] = system: COLO 205 colon
# [37] = system: HT29 colon
# [38] = system: 786-0 renal
# [39] = system: A498 renal
# [40] = system: SW-620 colon
# [41] = system: NCI-H226 lung
# [42] = system: UACC-257 melanoma
# [43] = system: MDA-MB-435 melanoma
# [44] = system: NCI-H23 lung
# [45] = system: MCF7 breast
# [46] = system: OVCAR-3 ovarian
# [47] = system: SNB-75 CNS
smiles,measurement,setting,value
C[C@@H](Nc1nc(N[C@H](C)C(F)(F)F)nc(-c2cccc(Cl)n2)n1)C(F)(F)F,GI50,[1],> 62.6 µM
same,TGI,[1],> 100 µM
same,GI50,[2],> 100 µM
same,TGI,[2],> 100 µM
same,GI50,[3],> 100 µM
same,TGI,[3],> 100 µM
same,GI50,[4],36.4 µM
same,TGI,[4],> 100 µM
same,GI50,[5],> 85.3 µM
same,TGI,[5],> 100 µM
same,GI50,[6],> 82.3 µM
same,TGI,[6],> 100 µM
same,GI50,[7],> 84.3 µM
same,TGI,[7],> 100 µM
same,GI50,[8],21.7 µM
same,TGI,[8],55 µM
same,GI50,[9],28.2 µM
same,TGI,[9],> 100 µM
same,GI50,[10],> 100 µM
same,TGI,[10],> 100 µM
same,GI50,[11],> 77.3 µM
same,TGI,[11],> 100 µM
same,GI50,[12],27.9 µM
same,TGI,[12],> 83.3 µM
same,GI50,[13],> 66 µM
same,TGI,[13],> 100 µM
same,GI50,[14],33.6 µM
same,TGI,[14],> 73.8 µM
same,GI50,[15],> 100 µM
same,TGI,[15],> 100 µM
same,GI50,[16],> 80.1 µM
same,TGI,[16],> 100 µM
same,GI50,[17],> 100 µM
same,TGI,[17],> 100 µM
same,GI50,[18],> 51.8 µM
same,TGI,[18],> 83 µM
same,GI50,[19],> 100 µM
same,TGI,[19],> 100 µM
same,GI50,[20],> 83.8 µM
same,TGI,[20],> 100 µM
same,GI50,[21],> 51.1 µM
same,TGI,[21],> 80.9 µM
same,GI50,[22],43 µM
same,TGI,[22],> 100 µM
same,GI50,[23],> 82.4 µM
same,TGI,[23],> 100 µM
same,GI50,[24],14.6 µM
same,TGI,[24],30.2 µM
same,GI50,[25],> 69.1 µM
same,TGI,[25],> 100 µM
same,GI50,[26],> 75.8 µM
same,TGI,[26],> 100 µM
same,GI50,[27],> 100 µM
same,TGI,[27],> 100 µM
same,GI50,[28],> 100 µM
same,TGI,[28],> 100 µM
same,GI50,[29],> 100 µM
same,TGI,[29],> 100 µM
same,GI50,[30],47.2 µM
same,TGI,[30],> 100 µM
same,GI50,[31],> 100 µM
same,TGI,[31],> 100 µM
same,GI50,[32],> 100 µM
same,TGI,[32],> 100 µM
same,GI50,[33],34.1 µM
same,TGI,[33],> 100 µM
same,GI50,[34],> 100 µM
same,TGI,[34],> 100 µM
same,GI50,[35],20.9 µM
same,TGI,[35],> 90.2 µM
same,GI50,[36],> 100 µM
same,TGI,[36],> 100 µM
same,GI50,[37],> 100 µM
same,TGI,[37],> 100 µM
same,GI50,[38],33.2 µM
same,TGI,[38],> 76.3 µM
same,GI50,[39],32.9 µM
same,TGI,[39],> 72.4 µM
same,GI50,[40],> 49.5 µM
same,TGI,[40],> 70.6 µM
same,GI50,[41],84.7 µM
same,TGI,[41],> 100 µM
same,GI50,[42],98.4 µM
same,TGI,[42],> 100 µM
same,GI50,[43],> 77.9 µM
same,TGI,[43],> 100 µM
same,GI50,[44],> 49.9 µM
same,TGI,[44],> 89.7 µM
same,GI50,[45],14.5 µM
same,TGI,[45],> 100 µM
same,GI50,[46],28.8 µM
same,TGI,[46],> 100 µM
same,GI50,[47],29.5 µM
same,TGI,[47],> 75.4 µM

# From PubChem BioAssay (NCI)
